Data: paper PMC2289734 (The Journal of Cell Biology, 1992)

Columns and labels:
[1] = test system: export of VSV-G protein from the ER; assay type: cell-based; details: for morphological effect on VSV-G export/transport: 45 min at 32°C
[2] = test system: ER to Golgi transport of VSV-G protein; assay type: cell-based
[3] = test system: export of VSV-G protein from the ER; details: cited from earlier work

Compound: guanosine-5'-O-(3-thiophospbate) [GTPTS]
- VSV-G containing punctate intermediates that contain rab1B [1]: < 10%
- morphological effect on VSV-G export/transport [1]: concentrated in numerous small, punctate structures

Compound: AlCl3
- effect on processing of VSV-G to the endo HR form [2]: no effect
- morphological effect on VSV-G export/transport [1]: did not inhibit

Compound: C/C=C(/C)C(=O)O[C@H]1C(C)=C2[C@H]([C@@H]1OC(=O)CCCCCCC)[C@@](C)(OC(C)=O)C[C@H](OC(=O)CCC)[C@@]1(O)[C@H]2OC(=O)[C@@]1(C)O [thapsigargan]
- effect on VSV-G export in vitro [1]: no effectof the drug

Compound: C=C1[C@@H](O)[C@@H]2O[C@]3(CC[C@H](/C=C/[C@@H](C)[C@@H]4CC(C)=C[C@@]5(O[C@H](C[C@@](C)(O)C(=O)O)CC[C@H]5O)O4)O3)CC[C@H]2O[C@@H]1[C@@H](O)C[C@H](C)[C@H]1O[C@@]2(CCCCO2)CC[C@H]1C [OKA, okadaic acid]
- effect on VSV-G protein exit from the ER [3]: potently inhibit VSV-G protein exit from the ER
